Where a name gives a salt, the structure may show the parent alone. Read-outs that look alike come from different tables or passages of the source.
Key:
Male Sprague-Dawley rats = assay: Elevated plus-maze test in rats; format: in vivo, rat; settings: 60 min after treatment, minimal effective dose regarding the time spent in the open arms
Excerpt: Tests have been performed as described by Pellow and co-workers [J. Neurosci. Methods, 14, 149 (1985)]. A wooden cross, 15 cm wide with 100 cm long arms was used for the experiments. The sides and ends of two opposite arms of the cross were equipped with 40 cm high walls, however, the arms were open to the 15×15 cm central area (closed arms). The two other opposite arms were not encircled by walls (open arms).
Male Sprague-Dawley rats weighing 200-220 g were used for the experiments. The animals were placed in the central area of the equipment 60 min after treatment and the following four parameters have been observed for the 5 min test time: • time spent in the open arms, • time spent in the closed arms, • number of entries into the open arms, • number of entries into the closed arms.
The effect was expressed as percent increase in either the time (measured in sec) spent in the open arms or number of entries into the open arms. MEDs (minimal effective dose) were determined for each compound regarding the time spent in the open arms. Buspirone [8-{4-[4-(2-pyrimidinyl)-1-piperazinyl]butyl}-8-azaspiro[4,5]decane-7,9-dione] was used as the reference substance.

male Wistar rats [1] = assay: Vogel lick-conflict (drinking conflict) test; format: in vivo, rat; settings: intraperitoneally, 30 min prior to test, number of tolerated shocks
Description: Experiments were performed in a PC operated system (LIIKOSYS, Experimentria, Hungary) consisted of 8 test chambers (20 cm×20 cm×20 cm Plexiglas boxes) each of which was equipped with a water fountain system mounted at appropriate height on the wall of the chamber and metal grid floor for delivering electric shocks. 160-180 g male Wistar rats N=8) were deprived of drinking water 48 h and fasted for 24 h prior to test. Test and reference compounds or vehicle were administered intraperitoneally, 30 min prior to test. All procedures were carried out in a quiet, air-conditioned room between 07:30 and 13:00 h at an ambient temperature of 23±2° C. At the beginning of the test the animals were placed in the test chamber where they had free access to drinking water for a 30 s grace period. After that, electric shocks (600 μA, 0.6 s) were applied through the drinking spout following every 20 licks during the 5 min test period (Vogel et al, 1971). Number of punished licks were recorded and stored by an IBM compatible computer. Means±SEM of numbers of tolerated shocks were calculated in each group, statistical analysis of data was performed by one way ANOVA followed by Duncan's test ([…]). Diazepam [7-chloro-1,3-dihydro-1-methyl-5-phenyl-2H-1,4-benzodiazepine-2-one] was used as the reference substance.

mouse = assay: Inhibition of spontaneous motor activity (sedative effect); format: in vivo
Description: The effect on spontaneous motor activity was investigated according to Borsy and co-workers [Borsy, J. et al, Arch. Int. Pharmacodyn., 124, 180-190 (1960)] in a ten channel Dews instrument, with 1-1 animal in each channel. Animals were placed into the instrument 60 min after per os treatment with either vehicle or test compound, and interruptions of infrared beams were recorded for 30 min. […] Inhibitory doses (ID50)have been determined by regression analysis. Diazepam was used as the reference substance.

male Wistar rats [2] = assay: Effects on blood pressure, radiotelemetry in conscious rats; settings: for Mean blood pressure after treatment with test compound (mmHg), Mean: mean arterial blood pressure for 6 hours after oral treatment; for Results of statistical evaluation: test compound compared to placebo, mean arterial blood pressure for 6 hours after treatment
Description: (§1) The experiments were performed in conscious, freely moving, male Wistar rats using a radiotelemetry system (Data Sciences International, St. Paul, Minn., USA). Prior to treatments rats were implanted with transmitters (type: TL11M2-C50-PXT) that permitted continues monitoring of arterial blood pressure. Under sterile surgical conditions, catheter of the transmitter was introduced into the abdominal aorta for measurement of arterial blood pressure and the transmitter was sutured to the abdominal wall of animals anaesthetised with pentobarbital-Na (60 mg/kg, i.p.; Nembutal inj. Phylaxia-Sanofi, Budapest). After surgery the animals were treated with an antibiotic (1 ml/kg i.m. Tardomyocel comp. inj. ad us. vet., Bayer A G, Leverkusen, Germany). A 7 day postoperative recovery period was allowed. Radio signals emitted by the transmitters were detected by RLA1000 type receivers placed under each animal's cage. The data were collected, saved and evaluated using the Dataquest IV. software from Data Sciences. The computer was set to sample the parameters for 10 seconds in every second minute.
(§2) The test substances or vehicle (methyl cellulose 0.4% w/v) were administered orally by gavage in a volume of 1 ml/kg at about 10 a.m. The effects of test items were measured for 6 hours. The effect of each compound was compared with that caused by vehicle treatment using two-way analysis of variance for repeated measures with Scheffe's post hoc test.

male Wistar rats [3] = settings: rat, in vivo
Description: as §1, §2

[4] = per os, 60 min before test, interruptions of infrared beams recorded for 30 min

SMILES	MED in mg/kg po. (Male Sprague-Dawley rats) [mg/kg]	melting point [°C]	MED in mg/kg ip. (male Wistar rats [1]) [mg/kg]	also measured
O=C1CC2(CCCC2)CC(=O)N1CCCCN1CCN(c2ncccn2)CC1 [Buspirone, 8-{4-[4-(2-pyrimidinyl)-1-piperazinyl]butyl}-8-azaspiro[4,5]decane-7,9-dione, reference compound]	3.0			
CN(CCN1CCN(c2cccc3c2OCCO3)CC1)c1cnn(C)c(=O)c1 (as salt: hydrochloride) [Example 16, 5-(2-(4-(2,3-dihydro-benzo[1,4]dioxine-5-yl)-piperazine-1-yl)-ethyl-methyl-amino)-2-methyl-2H-pyridazine-3-one-hydrochloride]		249 to 251		
O=c1cc(NCCN2CCN(c3cccc4c3OCCO4)CC2)cn[nH]1 [Example 10, 5-{2-[4-(2,3-dihydro-1,4-benzodioxine-5-yl)-piperazine-1-yl]-ethylamino}-2H-pyridazine-3-one]	0.01	244 to 246	5.0	ID50 in mg/kg po. (mouse; [4]): 53.3 mg/kg
O=c1cc(NCCCN2CCN(c3cccc4c3OCCO4)CC2)cn[nH]1 [Example 12, 5-{3-[4-(2,3-dihydro-1,4-benzodioxine-5-yl)piperazine-1-yl]-propylamino}-2H-pyridazine-3-one]		158 to 160		Mean blood pressure after treatment with test compound (mmHg), Mean (male Wistar rats [2]): 89.9 mmHg; Results of statistical evaluation (male Wistar rats [2]): N.S.
CN(CCN1CCN(c2cccc3c2OCCO3)CC1)c1cnn(C)c(=O)c1Cl [Example 17, 4-chloro-5-({2-[4-(2,3-dihydro-benzo[1,4]dioxine-5-yl)-piperazine-1-yl]-ethyl}-methyl-amino)-2-methyl-2H-pyridazine-3-one]		114 to 116		
CN(CCN1CCN(c2cccc3c2OCCO3)CC1)c1cn[nH]c(=O)c1Cl [Example 7, 4-chloro-5-{2-[4-(2,3-dihydrobenzo[1,4]dioxine-5-yl)-piperazine-1-yl]ethyl}methylamino-2H-pyridazine-3-one]			<10.0	Results of statistical evaluation (male Wistar rats [3]): N.S.; Mean blood pressure after treatment with test compound (mmHg), Mean (male Wistar rats [3]; po): 97.0 mmHg
O=c1[nH]nccc1NCCCNCCOc1cccc2c1OCCO2 [Example 9, 4-{3-[2-(2,3-dihydrobenzo[1,4]dioxine-5-yloxy)ethylamino]-propylamino}-2H-pyridazine-3-one]	0.3			ID50 in mg/kg po. (mouse; [4]): >30.0 mg/kg
Cn1ncc(NCCN2CCN(c3cccc4c3OCCO4)CC2)cc1=O [Example 14, 5-{2-[4-(2,3-dihydro1,4-benzodioxine-5-yl)-piperazine-1-yl]-ethylamino}-2-methyl-2H-pyridazine-3-one]		188 to 190		
CN(CCN1CCN(c2cccc3c2OCCO3)CC1)c1cnn(C)c(=O)c1 [Example 16, 5-(2-(4-(2,3-dihydro-benzo[1,4]dioxine-5-yl)-piperazine-1-yl)-ethyl-methyl-amino)-2-methyl-2H-pyridazine-3-one-hydrochloride]				Mean blood pressure after treatment with test compound (mmHg), Mean (male Wistar rats [2]): 105.2 mmHg; Results of statistical evaluation (male Wistar rats [2]): N.S.
O=c1[nH]ncc(Cl)c1NCCCCN1CCN(c2cccc3c2OCCO3)CC1 [Example 4, 5-chloro-4-{4-[4-(2,3-dihydrobenzo[1,4]dioxine-5-yl)-piperazine-1-yl]-butylamino}-2H-piridazine-3-one]	1.0		20.0	ID50 in mg/kg po. (mouse; in vivo, po): 30.0 mg/kg
O=c1[nH]ncc(NCCN2CCN(c3cccc4c3OCCO4)CC2)c1Cl [Example 5, 4-chloro-5-{2-[4-(2,3-dihydrobenzo[1,4]dioxine-5-yl)-piperazin-1-yl]-ethylamino}-2H-pyridazine-3-one]	0.003	217 to 219		ID50 in mg/kg po. (mouse; [4]): 11.0 mg/kg
CN1C(=O)CN=C(c2ccccc2)c2cc(Cl)ccc21 [Diazepam, 7-chloro-1,3-dihydro-1-methyl-5-phenyl-2H-1,4-benzodiazepine-2-one, reference compound]			5.0	ID50 in mg/kg po. (mouse; [4]): 7.0 mg/kg
O=c1cc(NCCN2CCN(c3cc(Cl)cc4c3OCCO4)CC2)cn[nH]1 [Example 11, 5-{2-[4-(7-chloro-2,3-dihydrobenzo[1,4]dioxine-5-yl)-piperazine-1-yl]ethylamino}-2H-pyridazine-3-one]		115 to 117	20.0	Mean blood pressure after treatment with test compound (mmHg), Mean (male Wistar rats [2]): 101.5 mmHg; Results of statistical evaluation (male Wistar rats [2]): N.S.
O=c1[nH]ncc(Cl)c1NCCCN(CCOc1cccc2c1OCCO2)Cc1ccccc1 (as salt: hydrochloride) [Example 3, 4-{3-[benzyl-[2-(2,3-dihydrobenzo[1,4]dioxine-5-yloxy)ethyl]-amino]propylamino}-5-chloro-2H-pyridazine-3-one hydrochloride]		207 to 209		
O=c1cc(NCCNCCOc2cccc3c2OCCO3)cn[nH]1 [Example 13, 5-{2-[2-(2,3-dihydrobenzo[1,4]dioxine-5-yloxy)ethylamino)-ethylamino)-2H-pyridazine-3-one]		81 to 83		
O=c1[nH]nccc1NCCCNCCOc1cccc2c1OCCO2 (as salt: hydrochloride) [Example 9, 4-{3-[2-(2,3-dihydrobenzo[1,4]dioxine-5-yloxy)ethylamino]-propylamino}-2H-pyridazine-3-one]		203 to 204		
CC(C)(C)n1ncc(Cl)c(NCCN2CCN(c3cccc4c3OCCO4)CC2)c1=O [Example 8, 2-tert.-butyl-5-chloro-4-{2-[4-(2,3-dihydrobenzo-[1,4]dioxine-5-yl)piperazine-1-yl]ethylamino}-2H-pyridazine-3-one]		177 to 178		Mean blood pressure after treatment with test compound (mmHg), Mean (male Wistar rats [2]): 95.4 mmHg; Results of statistical evaluation (male Wistar rats [2]): N.S.
Cn1ncc(NCCN2CCN(c3cccc4c3OCCO4)CC2)c(Cl)c1=O.O [Example 6, 4-chloro-5-{2-[4-(2,3-dihydro-1,4-benzodioxine-5-yl)-piperazine-1-yl]-ethylamino}-2-methyl-2H-piridazine-3-one monohydrate]			<5.0	Mean blood pressure after treatment with test compound (mmHg), Mean (male Wistar rats [2]): 106.3 mmHg; Results of statistical evaluation (male Wistar rats [2]): N.S.
O=c1[nH]ncc(Cl)c1NCCCN(CCOc1cccc2c1OCCO2)Cc1ccccc1 [Example 3, 4-{3-[benzyl-[2-(2,3-dihydrobenzo[1,4]dioxine-5-yloxy)ethyl]-amino]propylamino}-5-chloro-2H-pyridazine-3-one hydrochloride]	10.0			
CCCN(CCCNc1c(Cl)cn[nH]c1=O)CCOc1cccc2c1OCCO2 [Example 2, 5-chloro-4-(3-{[2-(2,3-dihydrobenzo[1,4]dioxine-5-yloxy)-ethyl]propyl-amino}propylamino)-2H-pyridazine-3-one]	10.0	87 to 89	20.0	
